Source: the supplement of paper PMC11061612

Columns and labels:
Assay in all cases: combination Emax (second highest fraction inhibited in the dose matrix, 72 h); higher = more inhibition; extreme values may be limits of the assay
[1] = system: BFTC-905 (Bladder Carcinoma)
Outline: (§1)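 Bliss excess equals the observed combination effect minus the expected value EA + EB − EA·EB, where EA and EB are the effects of each agent alone. Combination Emax is the second-highest inhibition within the matrix. Inhibition was scaled from CellTiter-Glo 2.0 luminescence, with 0 set by vehicle wells and 1 by blank wells, after 72 hours of two-drug dosing of cells plated in 1536-well plates.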

[2] = system: BL-41 (Burkitt's Lymphoma)
Outline: as §1

[3] = system: CAMA-1 (Breast Carcinoma)
Outline: as §1

[4] = system: COLO-678 (Colorectal Carcinoma)
Outline: as §1

[5] = system: DND-41 (T-Lymphoblastic Leukemia)
Outline: as §1

[6] = system: EVSA-T (Breast Carcinoma)
Outline: as §1

[7] = system: HDQ-P1 (Breast Carcinoma)
Outline: as §1

[8] = system: K-562 (Chronic Myelogenous Leukemia)
Outline: as §1

[9] = system: KCL-22 (Chronic Myelogenous Leukemia)
Outline: as §1

[10] = system: KM12 (Colorectal Carcinoma)
Outline: as §1

[11] = system: KYSE-180 (Esophageal Squamous Cell Carcinoma)
Outline: as §1

[12] = system: MKN28 (Gastric Carcinoma)
Outline: as §1

[13] = system: NCI-H1792 (Lung Adenocarcinoma)
Outline: as §1

NCI-H2818 (Mesothelioma) = system: NCI-H2818 (Mesothelioma)
Outline: as §1

[14] = system: P12-ICHIKAWA (T-Lymphoblastic Leukemia)
Outline: as §1

[15] = system: PANC-08-13 (Pancreatic Carcinoma)
Outline: as §1

U251 (Low Grade Glioma) = system: U251 (Low Grade Glioma)
Outline: as §1

WIL2-NS (Non-Cancerous) = system: WIL2-NS (Non-Cancerous)
Outline: as §1

WM-115 (Melanoma) = system: WM-115 (Melanoma)
Outline: as §1

CHP-212 (Neuroblastoma) = system: CHP-212 (Neuroblastoma)
Outline: as §1

SMILES | combination Emax [1] | combination Emax [2] | combination Emax [3] | combination Emax [4] | combination Emax [5] | combination Emax [6] | combination Emax [7] | combination Emax [8] | combination Emax [9] | combination Emax [10] | combination Emax [11] | combination Emax [12] | combination Emax [13] | combination Emax (NCI-H2818 (Mesothelioma)) | combination Emax [14] | combination Emax [15] | combination Emax (U251 (Low Grade Glioma)) | combination Emax (WIL2-NS (Non-Cancerous)) | combination Emax (WM-115 (Melanoma)) | combination Emax (CHP-212 (Neuroblastoma))
Cc1c2c(nn1C)CSCc1cc(n(C)n1)CSc1cc(c3ccccc3c1)OCCCc1c(C(=O)O)n(C)c3c-2c(Cl)ccc13 [AZD5991] + C1CN(CCC1(C(=O)N[C@@H](CCO)C2=CC=C(C=C2)Cl)N)C3=NC=NC4=C3C=CN4 [Capivasertib] (first compound max 1 µM, 7x7, partner max 3 µM) | 0.206 | 1 | 0.994 | 0.194 | 0.111 | 1 | 0.232 | 0.374 | 0.981 | 0.553 | 0.922 | 0.12 | 0.302 | 0.258 | 1 | 0.15 | 0.224 | 0.666 | 0.584 | 
COc1nnc2ccc(N3CCC(c4ccc(OCCN5CCN(C)C(=O)[C@H]5C)cc4)CC3)nn12 [AZD5153] + CN(CC[C@H](CSC1=CC=CC=C1)NC2=C(C=C(C=C2)S(=O)(=O)NC(=O)C3=CC=C(C=C3)N4CCC(CC4)[C@H](C5=CC=CC=C5C6=CC=C(C=C6)Cl)O)S(=O)(=O)C(F)(F)F)CCO [AZD4320] (first compound max 1 µM, 7x7, partner max 1 µM) |  |  |  | 0.459 |  | 0.938 | 0.967 |  | 0.963 | 0.648 | 0.326 |  |  |  | 1 | 0.876 | 0.505 |  |  | 0.896
CC(=O)c1c(C)c2cnc(Nc3ccc(N4CCNCC4)cn3)nc2n(C2CCCC2)c1=O [Palbociclib] + CN(CC[C@H](CSC1=CC=CC=C1)NC2=C(C=C(C=C2)S(=O)(=O)NC(=O)C3=CC=C(C=C3)N4CCC(CC4)[C@H](C5=CC=CC=C5C6=CC=C(C=C6)Cl)O)S(=O)(=O)C(F)(F)F)CCO [AZD4320] (first compound max 10 µM, 7x7, partner max 1 µM) |  |  |  | 0.354 |  | 0.444 | 0.677 |  | 0.82 | 0.768 | 0.462 |  |  |  | 1 | 0.384 | 0.294 |  |  | 0.829
COc1cccc2c1C(=O)c1c(O)c3c(c(O)c1C2=O)C[C@@](O)(C(=O)CO)C[C@@H]3O[C@H]1C[C@H](N)[C@H](O)[C@H](C)O1 [Doxorubicin] + Cc1cc2ncnn2cc1Nc1ncc2c(n1)n(C1CCOCC1)c(=O)n2C [AZD7648] (first compound max 1 µM, 7x7, partner max 10 µM) | 0.974 | 1 | 0.469 | 0.715 | 0.889 | 0.787 | 0.682 | 0.823 | 0.932 | 0.936 | 0.858 | 0.503 | 0.923 | 0.694 |  | 0.182 | 0.859 | 1 | 0.678 | 0.782
C[C@@H](c1ccc2nccn2c1)n1nnc2ncc(-c3cnn(C)c3)nc21 [Savolitinib] + CN(CC[C@H](CSC1=CC=CC=C1)NC2=C(C=C(C=C2)S(=O)(=O)NC(=O)C3=CC=C(C=C3)N4CCC(CC4)[C@H](C5=CC=CC=C5C6=CC=C(C=C6)Cl)O)S(=O)(=O)C(F)(F)F)CCO [AZD4320] (first compound max 1 µM, 7x7, partner max 1 µM) |  |  |  | 0.226 |  | 0.248 | 0.591 |  | 0.268 | 0.139 | 0.13 |  |  |  | 1 | 0.394 | 0.176 |  |  | 0.178
CN(C)CCCOc1ccc(-c2ccc3ncc4c(c3c2)n(C2CCOCC2)c(=O)n4C)cn1 [AZD0156] + C=CCn1c(=O)c2cnc(Nc3ccc(N4CCN(C)CC4)cc3)nc2n1-c1cccc(C(C)(C)O)n1 [AZD1775] (first compound max 1 µM, partner max 1 µM) | 0.517 | 1 | 0.104 | 0.226 | 0.848 | 0.221 | 0.469 | 0.715 | 0.895 | 0.731 | 0.749 | 0.481 | 0.643 | 0.327 |  | 0.247 | 0.398 | 0.976 | 0.254 | 0.831
CCc1c2c(nc3ccc(O)cc13)-c1cc3c(c(=O)n1C2)COC(=O)[C@]3(O)CC [SN-38] + CN(C)CCCOc1ccc(-c2ccc3ncc4c(c3c2)n(C2CCOCC2)c(=O)n4C)cn1 [AZD0156] (first compound max 0.3 µM, 7x7, partner max 1 µM) | 0.957 | 1 | 0.208 | 0.268 | 0.934 | 0.421 | 0.702 | 0.752 | 0.921 | 0.716 | 0.411 | 0.451 | 0.757 | 0.499 |  | 0.131 | 0.897 | 1 | 0.43 | 0.747
CCN(CCO)CCCOc1ccc2c(Nc3cc(CC(=O)Nc4cccc(F)c4)[nH]n3)ncnc2c1 [AZD2811] + C=CCn1c(=O)c2cnc(Nc3ccc(N4CCN(C)CC4)cc3)nc2n1-c1cccc(C(C)(C)O)n1 [AZD1775] (first compound max 1 µM, partner max 1 µM) | 0.531 | 1 | 0.171 | 0.278 | 0.902 | 0.257 | 0.522 | 0.811 | 0.932 | 0.705 | 0.726 | 0.5 | 0.608 | 0.276 |  | 0.268 | 0.266 | 0.944 | 0.193 | 0.843
CCN(CCO)CCCOc1ccc2c(Nc3cc(CC(=O)Nc4cccc(F)c4)[nH]n3)ncnc2c1 [AZD2811] + O=C(c1cc(Cc2n[nH]c(=O)c3ccccc23)ccc1F)N1CCN(C(=O)C2CC2)CC1 [Olaparib] (first compound max 1 µM, 7x7, partner max 10 µM) | 0.502 | 0.603 | 0.206 | 0.153 | 0.369 | 0.31 | 0.264 | 0.366 | 0.417 | 0.176 | 0.176 | 0.238 | 0.175 | 0.234 |  | 0.166 | 0.273 | 0.397 | 0.259 | 0.771
COc1cccc(OCCCN)c1-c1cc(Nc2cnc(C#N)cn2)n[nH]1 [Prexasertib] + C=CCn1c(=O)c2cnc(Nc3ccc(N4CCN(C)CC4)cc3)nc2n1-c1cccc(C(C)(C)O)n1 [AZD1775] (first compound max 1 µM, partner max 1 µM) | 0.96 | 1 | 0.545 | 0.307 | 0.88 | 0.532 | 0.856 | 0.98 | 0.997 | 0.862 | 0.983 | 0.725 | 0.915 | 0.359 |  | 0.544 | 0.783 | 1 | 0.614 | 0.811
COc1cccc(OCCCN)c1-c1cc(Nc2cnc(C#N)cn2)n[nH]1 [Prexasertib] + C[C@@H]1COCCN1C2=NC(=NC(=C2)C3(CC3)[S@](=N)(=O)C)C4=C5C=CNC5=NC=C4 [AZD6738] (first compound max 1 µM, 7x7, partner max 10 µM) | 0.917 | 1 | 0.417 | 0.136 | 0.891 | 0.343 | 0.597 | 0.985 | 0.999 | 0.767 | 0.989 | 0.597 | 0.832 | 0.387 |  | 0.49 | 0.652 | 1 | 0.59 | 0.788
COc1cccc(OCCCN)c1-c1cc(Nc2cnc(C#N)cn2)n[nH]1 [Prexasertib] + CN(C)CCCOc1ccc(-c2ccc3ncc4c(c3c2)n(C2CCOCC2)c(=O)n4C)cn1 [AZD0156] (first compound max 1 µM, 7x7, partner max 1 µM) | 0.888 | 1 | 0.327 | 0.0457 | 0.811 | 0.252 | 0.538 | 0.979 | 1 | 0.775 | 0.983 | 0.597 | 0.825 | 0.282 |  | 0.467 | 0.613 | 1 | 0.566 | 0.782
C[C@@H]1COCCN1c1cc(C2([S@](C)(=N)=O)CC2)nc(-c2ccnc3[nH]ccc23)n1 [AZD6738] + O=C(c1cc(Cc2n[nH]c(=O)c3ccccc23)ccc1F)N1CCN(C(=O)C2CC2)CC1 [Olaparib] (first compound max 10 µM, 7x7, partner max 10 µM) | 0.873 | 1 | 0.322 | 0.159 | 0.947 | 0.346 | 0.512 | 0.811 | 0.909 | 0.615 | 0.76 | 0.484 | 0.707 | 0.45 |  | 0.313 | 0.661 | 0.968 | 0.518 | 0.795
